By melting point is commonly meant the temperature of the solid-liquid transition.

This passage reports melting point results from a melting point compilation (Tetko et al.; mined from patent text by program, amines drawn as free bases though some values may be those of a salt).

For `CC(C)(C)OC(=O)N1CCN(C(=O)CCl)CC1`, the melting point was in the range of 68 to 70 °C.

`NC(CCOc1ccc(C(=NO)C(=O)NC2CN(C(C(=O)O)c3ccc(OCc4ccccc4)cc3)C2=O)cc1)C(=O)O` (stereo not drawn) displayed a melting point of 164 to 168 °C.

Turning to `CC(C#Cc1ccc(Oc2cncc(Cl)c2)o1)N(O)C(N)=O` (stereo not drawn), the melting point is 150 °C.

`CCOC(=O)C(=NOC)c1noc(C(Cl)(Cl)Cl)n1` yielded a melting point of 143 to 146 °C.

Turning to `CS(=O)(=O)c1ccc(-n2nc(C(F)(F)F)cc2-c2nc3cc(F)ccc3[nH]2)cc1`, the melting point fell in the range of 278 to 280 °C.

As for `COc1cccc([C@H]2O[C@H](CC(=O)Nc3ccc(CCC(=O)O)cc3)C(=O)N(CC(C)(C)COC(C)=O)c3ccc(Cl)cc32)c1OC`, the melting point lay within 144 to 146 °C.

The compound `CC(C)c1nc(CN2C(=O)C3(COc4cc5c(cc43)OCO5)c3c(-c4ccc(N(C)C)nc4)cccc32)cs1` (stereo not drawn) displayed a melting point of 164 to 165 °C.

Turning to `Cc1c(C(=O)O)cnn1-c1ccc(I)cc1`, the melting point was found to be 225 °C.

For `COc1ccc(C(=NO)c2sccc2Br)cc1`, the melting point lay within 110 to 115 °C.

As for `O=C1c2ccc(Cl)cc2C(=O)N1C1CCN(CCc2c[nH]c3ccccc23)CC1`, the melting point lay in the range of 188 to 190 °C.

For the compound `CCOC(=O)c1cnc2c(cnn2Cc2ccco2)c1O`, the melting point lay in the range of 103 to 106 °C.

`CCOC(=O)N1CCC(Nc2ccc(Cl)cc2C(=O)c2ccccc2F)CC1`: the melting point lay within 112 to 114 °C.

With `CN(CC(O)CN(C)S(=O)(=O)C(F)(F)C(F)(F)C(F)(F)C(F)(F)F)S(=O)(=O)C(F)(F)F` (stereo not drawn), the melting point lay within 79 to 85 °C.

In turn, `Cc1ccc(S(=O)(=O)NCCNC(C)C)cc1` gave a melting point of 76 to 78 °C.

In turn, `CC(C)(CO)C(=O)N(O)Cc1ccccc1Cl` gave a melting point of 130 to 132 °C.

`CNC(=O)c1c[nH]c2ccc(C(=O)c3c(C)c(OC)c4ccccn34)cc2c1=O`: the melting point was determined as 324 °C.

In the case of `CC(=O)NC[C@H]1CN(c2ccc(C3=CCCN(C(=O)CO)C3)c(F)c2)C(=O)O1`, the melting point lay within 188 to 190 °C.

`COc1nc(C)nc(NC(=O)NS(=O)(=O)c2csc3ccccc23)n1` registered a melting point of 187 to 188 °C.

`COC(=O)c1ncn2c1c(OC)nc1ccccc12` came in with a melting point of 189 to 191 °C.

As for `COc1cc(C2=Nc3ccc(N4CCOCC4)cc3C(=O)C2)ccc1O`, the melting point was 297 to 299 °C.

`CCc1cc(OCc2ccc(-c3ccccc3-c3nnn(C(c4ccccc4)(c4ccccc4)c4ccccc4)n3)cc2)c2c(n1)CCCN2C(=O)C(F)(F)F` registered a melting point of 93 to 95 °C.

Compound `Nc1cc(N2CCCC2=O)c(Cl)cc1Cl` gave a melting point of 168 to 170 °C.

With `CC(=O)c1ccc(-c2cnn3c(O)ncnc23)cc1`, the melting point was > 300 °C.

`CCCCC[C@H]1CC[C@H](c2ccc(C#Cc3ccc(OC(F)F)cc3)cc2)CC1` displayed a melting point of 62 °C.

As to `Cc1c(C)c2c(c(C)c1O)CC(CCI)O2` (racemic), the melting point was 96 to 97 °C.

Compound `CN1CCC(c2c(O)cc(O)c3c(=O)cc(-c4ccccc4Cl)oc23)C1CS` (stereo not drawn) gave a melting point of 205 to 206 °C.

For `C(=C1CCN(C(c2ccccc2)(c2ccccc2)c2ccccc2)CC1)c1ccc(C2=NCCO2)cc1`, the melting point is 74 °C.

On to `CC(=O)Nc1c(C#N)ccc(C#N)c1[N+](=O)[O-]`, for which the melting point lay in the range of 232 to 233 °C.

`O=C1CN2Cc3ccccc3N=C2N1`: the melting point is > 285 °C.

`CCOc1ccc(-c2ccc(N3CC(CNC(C)=O)OC3=O)cc2)ccc1=O` (stereo not drawn) had a melting point of 228 to 229 °C.

`COc1cc2c(Oc3ccc4[nH]cc(C)c4c3)ncnc2cc1OCCCN1CCCC1`: the melting point fell in the range of 75 to 77 °C.

Take `O=c1oc(-c2ccc(-n3ccnc3)c(C(F)(F)F)c2)nn1Cc1cc(Cl)ccc1O`: the melting point was in the range of 178 to 180 °C.

Take `CC(=O)c1ccc(-n2c(-c3sc(NC(=O)c4ccc(C)cc4)nc3-c3ccccc3)nc3ccccc3c2=O)cc1`: the melting point was 266 to 267 °C.
